Experimental data from patent US20220017572A1, “GEMINOID LIPOPEPTIDE COMPOUNDS AND THEIR USES” (Erasmus University Medical Center Rotterdam, priority 2016, published 2022).
Non-standard residues stand in square brackets, D forms with d. Residues, ends and D or L forms follow the SMILES beside them. C12 = C12 alkyl chain at peptide end (geminoid); C16 = C16 alkyl chain at peptide end (geminoid); C20 = C20 alkyl chain at peptide end (geminoid); C3 = C3 alkyl chain at peptide end

tested on: DENV2 protease replicon; assay: DENV2 protease replicon assay; assay type: cell-based; details: lowest concentration with observed activity in replicon assay

Compound | Replicon activity [μM] (1)
C16-LFKK-C16: geminoid in shorthand Cp-Zn-Cq, peptide SEQ ID NO: 69 | 10.0 µM
C16-FFKK-C16: geminoid in shorthand Cp-Zn-Cq, peptide SEQ ID NO: 70 | 5.0 µM
C8-ARRK-C8: alkylated peptide in shorthand Cp-Zn-Cq, peptide SEQ ID NO: 76 ({C8 alkyl}-ARRK-{C8 alkyl}) | 10.0 µM
C16-D-AKAKS-C16: geminoid in shorthand Cp-Zn-Cq, D-peptide, SEQ ID NO: 89 (C16-[dA][dK][dA][dK][dS]-C16) | 5.0 µM
C16-RARK-C16: geminoid in shorthand Cp-Zn-Cq, peptide SEQ ID NO: 77 | 3.0 µM
C16-D-LKAK-C16: geminoid in shorthand Cp-Zn-Cq, D-peptide, SEQ ID NO: 75 (C16-[dL][dK][dA][dK]-C16) | 9.9 µM
C16-AKAKS-C16: geminoid in shorthand Cp-Zn-Cq, peptide SEQ ID NO: 89 | 1.0 µM
C16-GLKR-C16: geminoid in shorthand Cp-Zn-Cq, peptide SEQ ID NO: 84 | 3.0 µM
C12-FKKK-C12: geminoid in shorthand Cp-Zn-Cq, peptide SEQ ID NO: 73 | 10.0 µM
C16-AKKK-C16: geminoid in shorthand Cp-Zn-Cq, peptide SEQ ID NO: 71 | 1.0 µM
C16-QRKR-C16: geminoid in shorthand Cp-Zn-Cq, peptide SEQ ID NO: 85 | 3.0 µM
C20-FKKK-C20: geminoid in shorthand Cp-Zn-Cq, peptide SEQ ID NO: 73 ({C20 alkyl}-FKKK-{C20 alkyl}) | 0.9 µM
C16-D-LKAK-L-S-C16: geminoid in shorthand Cp-Zn-Cq, D-LKAK with L-S, SEQ ID NO: 90 (C16-[dL][dK][dA][dK]S-C16) | 3.0 µM
C16-AFKK-C16: geminoid in shorthand Cp-Zn-Cq, peptide SEQ ID NO: 68 | 5.0 µM
C16-LKKK-C16: geminoid in shorthand Cp-Zn-Cq, peptide SEQ ID NO: 72 | 1.0 µM
C3-AKKK-C3: alkylated peptide in shorthand Cp-Zn-Cq, peptide SEQ ID NO: 71 ({C3 alkyl}-AKKK-{C3 alkyl}) | 10.0 µM
C16-FFQK-C16: geminoid in shorthand Cp-Zn-Cq, peptide SEQ ID NO: 82 | 3.0 µM
C3-ARRK-C3: alkylated peptide in shorthand Cp-Zn-Cq, peptide SEQ ID NO: 76 ({C3 alkyl}-ARRK-{C3 alkyl}) | 3.0 µM
C12-RARK-C12: geminoid in shorthand Cp-Zn-Cq, peptide SEQ ID NO: 77 | 1.0 µM
C16-FLKK-C16: geminoid in shorthand Cp-Zn-Cq, peptide SEQ ID NO: 67 | 3.0 µM
C12-LKAK-C12: geminoid in shorthand Cp-Zn-Cq, peptide SEQ ID NO: 75 | 10.0 µM
C20-LKKK-C20: geminoid in shorthand Cp-Zn-Cq, peptide SEQ ID NO: 72 | 1.0 µM
C16-LLKK-C16: geminoid in shorthand Cp-Zn-Cq, peptide SEQ ID NO: 66 | 3.0 µM
C8-AKKK-C8: alkylated peptide in shorthand Cp-Zn-Cq, peptide SEQ ID NO: 71 ({C8 alkyl}-AKKK-{C8 alkyl}) | 10.0 µM

Compound | Replicon activity [μM] (1)
C12-ARRK-C12: geminoid in shorthand Cp-Zn-Cq, peptide SEQ ID NO: 76 | 0.3 µM
C16-ALKK-C16: geminoid in shorthand Cp-Zn-Cq, peptide SEQ ID NO: 65 | 10.0 µM
C8-LKAK-C8: alkylated peptide in shorthand Cp-Zn-Cq, peptide SEQ ID NO: 75 ({C8 alkyl}-LKAK-{C8 alkyl}) | 10.0 µM
C16-LKRR-C16: geminoid in shorthand Cp-Zn-Cq, peptide SEQ ID NO: 83 | 3.0 µM
C16-FAKK-C16: geminoid in shorthand Cp-Zn-Cq, peptide SEQ ID NO: 64 | 3.0 µM
C16-D-AKAK-C16: geminoid in shorthand Cp-Zn-Cq, D-peptide, SEQ ID NO: 74 (C16-[dA][dK][dA][dK]-C16) | 2.9 µM
C3-FKKK-C3: alkylated peptide in shorthand Cp-Zn-Cq, peptide SEQ ID NO: 73 ({C3 alkyl}-FKKK-{C3 alkyl}) | 10.0 µM
C20-AKKK-C20: geminoid in shorthand Cp-Zn-Cq, peptide SEQ ID NO: 71 | 3.0 µM
C16-LLQK-C16: geminoid in shorthand Cp-Zn-Cq, peptide SEQ ID NO: 81 | 0.3 µM
C16-D-LKAKG-C16: geminoid in shorthand Cp-Zn-Cq, D-peptide, SEQ ID NO: 88 (C16-[dL][dK][dA][dK]G-C16) | 3.0 µM
C8-FKKK-C8: alkylated peptide in shorthand Cp-Zn-Cq, peptide SEQ ID NO: 73 ({C8 alkyl}-FKKK-{C8 alkyl}) | 10.0 µM
C2-AKAK-C3: alkylated peptide in shorthand Cp-Zn-Cq, peptide SEQ ID NO: 74 (Et-AKAK-C3) | 10.0 µM
C2-LKAK-C3: alkylated peptide in shorthand Cp-Zn-Cq, peptide SEQ ID NO: 75 (Et-LKAK-C3) | 10.0 µM
C16-LAKK-C16: geminoid in shorthand Cp-Zn-Cq, peptide SEQ ID NO: 63 | 5.0 µM
C3-LKKK-C3: alkylated peptide in shorthand Cp-Zn-Cq, peptide SEQ ID NO: 72 | 10.0 µM
C16-LKAK-C16: geminoid in shorthand Cp-Zn-Cq, peptide SEQ ID NO: 75 | 3.0 µM
C12-AKAK-C12: geminoid in shorthand Cp-Zn-Cq, peptide SEQ ID NO: 74 | 10.0 µM
C16-D-AKAKG-C16: geminoid in shorthand Cp-Zn-Cq, D-peptide, SEQ ID NO: 87 (C16-[dA][dK][dA][dK]G-C16) | 3.0 µM
C8-AKAK-C8: alkylated peptide in shorthand Cp-Zn-Cq, peptide SEQ ID NO: 74 ({C8 alkyl}-AKAK-{C8 alkyl}) | 10.0 µM
C16-NKKR-C16: geminoid in shorthand Cp-Zn-Cq, peptide SEQ ID NO: 86 | 3.0 µM
C16-ARRK-C16: geminoid in shorthand Cp-Zn-Cq, peptide SEQ ID NO: 76 | 0.3 µM
C8-LKKK-C8: alkylated peptide in shorthand Cp-Zn-Cq, peptide SEQ ID NO: 72 | 10.0 µM
C16-AAKK-C16: geminoid in shorthand Cp-Zn-Cq, peptide SEQ ID NO: 62 | 5.0 µM

target: T1, dengue 2 protease (Dengue virus type 2, UniProt P14340); assay: Dengue 2 protease inhibition in presence of Triton X-100 (detergent test, Nature Protocol); assay type: biochemical, dengue 2 virus; details: 5 μM of inhibitor, 0.05% Triton X-100
T1 construct: The active site of the dengue protease is in the N-terminal part of NS3
T1 sequence (P14340 1476-1653): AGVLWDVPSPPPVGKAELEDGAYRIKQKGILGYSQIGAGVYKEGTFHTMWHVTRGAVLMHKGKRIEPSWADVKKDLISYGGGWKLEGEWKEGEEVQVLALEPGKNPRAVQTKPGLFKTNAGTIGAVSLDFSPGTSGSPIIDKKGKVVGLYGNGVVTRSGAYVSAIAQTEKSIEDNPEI
Text: A further investigation of the interactions of the geminoid inhibitors with biological membranes and with membrane-bound proteases is needed. […] The preparation and tests of peptides symmetrically, asymmetrically and singly alkylated with saturated, short (C6), and unsaturated (C18:1) alkyl tails are in progress.

Compound | % recovery in presence of Triton
CCCCCCCCCCCCNC(=O)[C@H](CCCCN)NC(=O)[C@H](C)NC(=O)[C@H](C)NC(=O)[C@H](C)NC(=O)[C@H](CCCCN)NC(=O)CCCCCCCCCCC [C12KA3KC12, n-C11H23C(O)-Lys-(Ala)3-Lys-(n-C12H25).2TFA] (HELM PEPTIDE1{[CCCCCCCCCCCC(=O)[*:2]].K.A.A.A.K.[CCCCCCCCCCCCN[*:1]]}$$$$V2.0) | 45%

same assay, conditions: 5 μM of inhibitor, 0.05% Triton X-100; initial activity in UAF/min

Compound | Activity with 0.05% Triton
CCCCCCCCCCCCNC(=O)[C@H](CCCCN)NC(=O)[C@H](C)NC(=O)[C@H](C)NC(=O)[C@H](C)NC(=O)[C@H](CCCCN)NC(=O)CCCCCCCCCCC [C12KA3KC12, n-C11H23C(O)-Lys-(Ala)3-Lys-(n-C12H25).2TFA] (HELM PEPTIDE1{[CCCCCCCCCCCC(=O)[*:2]].K.A.A.A.K.[CCCCCCCCCCCCN[*:1]]}$$$$V2.0) | 85

same assay, conditions: 15 μM of inhibitor, 0.05% Triton X-100

Compound | % recovery in presence of Triton
CCCCCCCCCCCCCCCCNC(=O)[C@H](CCCNC(=N)N)NC(=O)[C@H](C)NC(=O)[C@H](C)NC(=O)[C@H](C)NC(=O)[C@H](CCCNC(=N)N)NC(=O)CCCCCCCCCCCCCCC [C16RA3RC16, n-C15H31C(O)-Arg-(Ala)3-Arg-(n-C16H33).2TFA] (HELM PEPTIDE1{[CCCCCCCCCCCCCCCC(=O)[*:2]].R.A.A.A.R.[CCCCCCCCCCCCCCCCN[*:1]]}$$$$V2.0) | 50%

same assay, conditions: 15 μM of inhibitor, 0.05% Triton X-100; initial activity in UAF/min

Compound | Activity with 0.05% Triton
CCCCCCCCCCCCCCCCNC(=O)[C@H](CCCNC(=N)N)NC(=O)[C@H](C)NC(=O)[C@H](C)NC(=O)[C@H](C)NC(=O)[C@H](CCCNC(=N)N)NC(=O)CCCCCCCCCCCCCCC [C16RA3RC16, n-C15H31C(O)-Arg-(Ala)3-Arg-(n-C16H33).2TFA] (HELM PEPTIDE1{[CCCCCCCCCCCCCCCC(=O)[*:2]].R.A.A.A.R.[CCCCCCCCCCCCCCCCN[*:1]]}$$$$V2.0) | 124

target: T1, dengue 2 protease; assay: Dengue 2 protease inhibition, hydrolysis of Z-RR-MCA; assay type: biochemical, dengue 2 virus; parameters: Activity with inhibitors: unit not given here; details: not given
Method: The active site of the dengue protease is in the N-terminal part of NS3 which is also a serine protease with catalytic triad Asp79-His51-Ser135, but requires […] (CF40) for activity; the inhibition reported here was studied on a […] (CF40-GGGGSGGGG-NS3; (SEQ ID NO:54)) which has also been structurally characterized [Erbel et al., 2006; Luo et al. 2008].
Substrate was added in a concentration 10 times the Km, and the inhibitor compounds of type C (C16-KGnK-C16, C16-KAnK-C16, and C16-RAnR-C16) were added in increasing concentrations (1.0, 5.0, 10.0, 20.0, 40.0 μL) from a stock solution of 2 mg in 1 mL DMSO. The residual activity was measured in a Hitachi F2500 spectrofluorimeter, and plots were fitted using the Grafit® software (Erithracus Software, Horley, Surrey, UK). All the assays were calculated by the Morrison equation for competitive inhibition (eq. 1, [Morrison, 1969]). The amount of substrate used for the tight binding titration experiments follow all the requirements, where [S]<<Km for all enzymes, so the Kiapp=Ki.
Range of Proteases Inhibited by Geminoids, Determination of Ki with Z-RR-MCA (Dengue 2 Protease) and Ac-RVRR-MCA (Furin) (SEQ ID NO:60).

Compound | Ki
CCCCCCCCCCCCNC(=O)[C@H](CCCCN)NC(=O)[C@H](C)NC(=O)[C@H](C)NC(=O)[C@H](C)NC(=O)[C@H](CCCCN)NC(=O)CCCCCCCCCCC [C12KA3KC12, n-C11H23C(O)-Lys-(Ala)3-Lys-(n-C12H25).2TFA] (HELM PEPTIDE1{[CCCCCCCCCCCC(=O)[*:2]].K.A.A.A.K.[CCCCCCCCCCCCN[*:1]]}$$$$V2.0) | 5.4 µM
CCCCCCCCCCCCCCCCNC(=O)[C@H](CCCNC(=N)N)NC(=O)[C@H](C)NC(=O)[C@H](C)NC(=O)[C@H](C)NC(=O)[C@H](CCCNC(=N)N)NC(=O)CCCCCCCCCCCCCCC [C16RA3RC16, n-C15H31C(O)-Arg-(Ala)3-Arg-(n-C16H33).2TFA] (HELM PEPTIDE1{[CCCCCCCCCCCCCCCC(=O)[*:2]].R.A.A.A.R.[CCCCCCCCCCCCCCCCN[*:1]]}$$$$V2.0) | 1.3 µM

same assay, conditions: 5 μM of inhibitor; 10 μM Z-RR-MCA, pH 9.0, 37° C.; initial activity in UAF/min

Compound | Activity with inhibitors
CCCCCCCCCCCCNC(=O)[C@H](CCCCN)NC(=O)[C@H](C)NC(=O)[C@H](C)NC(=O)[C@H](C)NC(=O)[C@H](CCCCN)NC(=O)CCCCCCCCCCC [C12KA3KC12, n-C11H23C(O)-Lys-(Ala)3-Lys-(n-C12H25).2TFA] (HELM PEPTIDE1{[CCCCCCCCCCCC(=O)[*:2]].K.A.A.A.K.[CCCCCCCCCCCCN[*:1]]}$$$$V2.0) | 30

same assay, conditions: 15 μM of inhibitor; 10 μM Z-RR-MCA, pH 9.0, 37° C.; initial activity in UAF/min

Compound | Activity with inhibitors
CCCCCCCCCCCCCCCCNC(=O)[C@H](CCCNC(=N)N)NC(=O)[C@H](C)NC(=O)[C@H](C)NC(=O)[C@H](C)NC(=O)[C@H](CCCNC(=N)N)NC(=O)CCCCCCCCCCCCCCC [C16RA3RC16, n-C15H31C(O)-Arg-(Ala)3-Arg-(n-C16H33).2TFA] (HELM PEPTIDE1{[CCCCCCCCCCCCCCCC(=O)[*:2]].R.A.A.A.R.[CCCCCCCCCCCCCCCCN[*:1]]}$$$$V2.0) | 55
